In paper doi:10.1101/2024.11.15.623779v1 (biorxiv, 2024):

Target: T1, GCase (Cerezyme) (Homo sapiens, UniProt P04062, R534H)
T1 sequence (P04062 40-536 R534H): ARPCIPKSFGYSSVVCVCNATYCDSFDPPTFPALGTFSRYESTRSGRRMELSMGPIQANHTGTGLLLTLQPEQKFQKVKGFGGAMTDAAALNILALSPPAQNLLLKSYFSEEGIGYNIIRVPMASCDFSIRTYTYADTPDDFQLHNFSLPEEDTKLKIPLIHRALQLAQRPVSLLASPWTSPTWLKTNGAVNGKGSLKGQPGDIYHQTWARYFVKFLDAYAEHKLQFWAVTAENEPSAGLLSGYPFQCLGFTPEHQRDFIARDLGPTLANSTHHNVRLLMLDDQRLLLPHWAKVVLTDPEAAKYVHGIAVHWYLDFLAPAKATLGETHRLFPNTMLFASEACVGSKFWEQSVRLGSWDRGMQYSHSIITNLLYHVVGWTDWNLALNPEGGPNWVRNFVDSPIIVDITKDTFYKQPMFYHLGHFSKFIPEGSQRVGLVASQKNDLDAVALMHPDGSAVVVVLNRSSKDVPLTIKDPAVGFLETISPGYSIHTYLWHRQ
Assay: SPR, immobilized GCase on CM5 chip
Assay type: binding
Details: pH […] HEPES, […] EDTA, […] NaCl, […] Tween-20; no IFG; allosteric

Substance | Kd
GT-02287 | 17 to 24 µM
GT-02329 | > 90 µM
